The source of these data is ChEMBL document CHEMBL1136674, “Antimycobacterial pimarane diterpenes from the Fungus Diaporthe sp” (Bioorg Med Chem Lett, 2003).

One test concerns Vero. The test can be described thus: Cytotoxicity against vero cell line. Type of test: functional, cell-based. The conditions noted are these: Chlorocebus sabaeus.
Test [1] relates to Mycobacterium tuberculosis. The test can be described thus: Antitubercular activity against Mycobacterium tuberculosis. The test is classed as functional.
A further test concerns BC1 cell line. In words: Cytotoxicity against BC-1 cell line. Type of test: functional, cell-based. The conditions noted are these: Homo sapiens.
For the next test, the system named is KB. The test can be described thus: Cytotoxicity against KB cell line. The conditions noted are these: Homo sapiens. The test is classed as functional, cell-based.

SMILES strings stand for the structures. Converted amounts (≈) assume the structure as drawn.

By IC50 is commonly meant the midpoint of a concentration-inhibition curve. A higher IC50 goes with weaker potency. By MIC is commonly meant the least concentration at which growth counts as inhibited. As to `C=C[C@]1(C)C=C2C(O)[C@]3(O)OC[C@@]4(CCCC(C)(C)[C@@]43O)[C@@]2(O)[C@H](O)C1` (stereo partly drawn) [DIAPORTHEIN A], in the test with Vero, the half-inhibitory concentration (IC50) is > 50 µg/mL. In addition, the minimum inhibitory concentration (MIC) in test [1] stood at 200 µg/mL (≈ 546 µM).

On to `C=C[C@]1(C)C=C2C(=O)[C@]3(O)OC[C@@]4(CCCC(C)(C)[C@@]43O)[C@@]2(O)[C@H](O)C1` [DIAPORTHEIN B], for which, in the test on Vero, half-maximal inhibition (IC50) was put at 1.5 µg/mL (≈ 4.12 µM). This molecule also displayed an MIC in test [1] of 3.1 µg/mL (≈ 8.51 µM).

Turning to `Cc1c2ccncc2c(C)c2c1[nH]c1ccccc12` [ELLIPTECINE], the IC50 in the test with BC1 cell line and in the test with KB was 0.3 µg/mL (≈ 1.22 µM) in each case.

In test [1], `NNC(=O)c1ccncc1` [ISONIAZID] came in with an MIC of 0.09 µg/mL (≈ 0.656 µM).

`NC[C@H]1O[C@H](O[C@H]2[C@H](O)[C@@H](O[C@H]3O[C@H](CO)[C@@H](O)[C@H](N)[C@H]3O)[C@H](N)C[C@@H]2N)[C@H](O)[C@@H](O)[C@@H]1O.O=S(=O)(O)O` [KANAMYCIN SULFATE] gave an MIC in test [1] of 5 µg/mL.
